Measured values as given in paper PMC8895377, “In Vivo Targeting Replication Protein A for Cancer Therapy” (Frontiers in Oncology, 2022).
In brackets after ≈: the same amount, converted by molar mass. Where two headings read alike, the source gives them in different places.

What was measured:
[1] = biological target: Escherichia coli single strand binding protein (SSB) (Escherichia coli, UniProt P0AGE0); assay: EMSA internal specificity control, SSB–ssDNA complex; details: internal specificity control in EMSA
Escherichia coli single strand binding protein (SSB), sequence (P0AGE0 2-178): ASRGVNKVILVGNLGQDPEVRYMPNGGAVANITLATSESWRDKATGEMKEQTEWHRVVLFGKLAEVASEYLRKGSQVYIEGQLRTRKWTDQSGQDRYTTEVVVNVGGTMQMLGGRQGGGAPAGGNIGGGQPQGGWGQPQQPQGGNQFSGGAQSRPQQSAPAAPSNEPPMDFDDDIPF
Method: EMSAs were performed as previously described ([9]). Briefly, reactions were conducted in 20 mM HEPES (pH 7.8), 1 mM DTT, 0.001% NP-40, and 50 mM NaCl. RPAis were suspended in 100% dimethlysulfoxide (DMSO), and DMSO concentration in the final reaction mixture was constant at less than 5%. Purified full-length RPA (120 ng) was incubated with the indicated RPAi or vehicle in reaction buffer for 30 min before the addition of the [^32]P-labeled 34-base ssDNA probe. Reactions were incubated for 5 min at room temperature, and products were separated via 6% native polyacrylamide gel electrophoresis. The bound and unbound fractions were quantified by phosphor-imager analysis using ImageQuant software (Molecular Dynamics, CA), and data were fit by non-linear regression using GraphPad Prism.
Figure 2 Replication protein A inhibitor (RPAi) inhibitory activity. (A) Chemical structure of RPAi’s 329 and 2004. (B) EMSA analysis of RPA–DNA interaction inhibition by 329 and 2004. Lanes 3–6 in each panel contain 6.25, 12.5, 25, and 50 µM of the indicated RPAi, respectively. The * indicates the position of the Escherichia coli SSB–single-stranded DNA (ssDNA) complex that serves as an internal specificity control. (C) Cell viability of H460 NSCLC cells in response to 329 and 2004.

[2] = parameters: method as in PMID 32550990; details: cited from earlier work
[3] = Vehicle/excipient solubility screen; format: physicochemical
Method: With favorable potency, cellular activity, plasma stability, and a clear deficit in PK, we initiated a series of studies to assess and optimize a formulation of 329 for in vivo bioavailability. Here, 329 solubility was assessed in a series of additives, excipients, and co-solvents to identify initial favorable vehicles ( Table 2 ). […] A series of different formulations were assessed. The final formulation consisted of polysorbate 80, N-methyl-2-pyrrolidone (NMP), propylene glycol, and PEG 400 (+1.1 mol. eq. HCl added as 12 M HCl), and 329 was soluble up to 20 mg/ml, and 10-fold dilution in PBS was well dispersed with minimal precipitation.

[4] = test system: H460 NSCLC tumor xenografts; assay: H460 NSCLC xenograft efficacy; format: in vivo, mice; details: 20 mg/kg IP daily for 5 days, 2 days off, repeated 3 times, optimized formulation
Text: To assess anticancer efficacy, the hind flanks of 60 8–10-week-old Nod SCID gamma (NSG) mice were implanted with the indicated cells (~2 × 10^6) in Matrigel. Tumor volumes were monitored by electronic caliper measurement [tumor volumes = length × (perpendicular width)^2 × 0.5]. NSG studies were approved by the Institutional Animal Care and Use Committee at Indiana University School of Medicine. Male NSG (NOD‐scid/IL2Rg^null) mice (In Vivo Therapeutics Core Facility, IU Simon Comprehensive Cancer Center, Indianapolis, IN, USA) were used and housed in a pathogen‐free facility at IUSM LARC. Mice with tumors of approximately 100 mm^3 were randomized into individual treatment arms. The indicated RPAi was formulated and administered via intraperitoneal injection (IP) at the indicated times. Tumor volumes were monitored biweekly as indicated, and the results are presented as the average tumor volume ± standard error of the mean for each group. […]
Figure 8 In vivo analysis of anticancer activity of 329. (A) Anticancer activity was assessed in human H460 NCSLC tumor xenografts in NOD/SCID mice. Mice were implanted subcutaneously on day 1 with H460 NSCLC cells, tumors were measured by calipers, and mice assigned randomly to treatment arms. […] (C) Tumor weight from A549 cells was determined on day 32. […]

CCOc1ccc2cc(C3CC(c4ccc(I)cc4)=NN3C(=O)CCCC(=O)NCCCN3CCOCC3)c(Cl)nc2c1 (stereo not drawn) [compound 329]
interaction of E. coli SSB with ssDNA [1]: not impacted | solubility, cellular uptake, and physicochemical properties [2]: excellent | solubility ([3]; 30% SBECD in water, aqueous with cosolvent or surfactant or cyclodextrin, read-out: Solubility): < 1000 µg/mL | solubility ([3]; Cremophor EL, aqueous with cosolvent or surfactant or cyclodextrin, read-out: Solubility): < 1000 µg/mL | solubility ([3]; Labrasol, aqueous with cosolvent or surfactant or cyclodextrin, read-out: Solubility): 1100 µg/mL (≈ 1530 µM) | solubility ([3]; NMP (N-methyl-2-pyrrolidone), organic solvent or mixture, read-out: Solubility): 70400 µg/mL (≈ 98000 µM) | solubility ([3]; aqueous buffer, 50 mM sodium acetate pH 4, read-out: Solubility): < 1000 µg/mL | solubility ([3]; ethanol, organic solvent or mixture, read-out: Solubility): < 1000 µg/mL | solubility ([3]; oleic acid, oil or lipid, read-out: Solubility): 2400 µg/mL (≈ 3340 µM) | solubility ([3]; organic solvent or mixture, polysorbate 80, NMP, propylene glycol, PEG 400 (+1.1 mol. eq. HCl), read-out: solubility in final formulation): ≤ 20000 µg/mL | solubility ([3]; polyethylene glycol 400, organic solvent or mixture, read-out: Solubility): 1200 µg/mL (≈ 1670 µM) | solubility ([3]; polysorbate 80, aqueous with cosolvent or surfactant or cyclodextrin, Polysorbate 8O, read-out: Solubility): < 1000 µg/mL | solubility ([3]; propylene glycol, organic solvent or mixture, read-out: Solubility): 1300 µg/mL (≈ 1810 µM) | solubility ([3]; water, read-out: Solubility): < 1000 µg/mL | tumor volume [4]: a decrease in tumor volume was observed starting at day 17
